Tests used:
[1] = set-up: species or system human; details: in vivo
Text: Normal volunteers with no evidence or history of diabetes mellitus or of cardiac, liver, renal or pulmonary diseases were studied. The subjects consisted of 3 males and 1 female, ranging in age from 31 to 37 years, in body weight from 47 to 92 kg, and in body mass index (BMI) from 19.2 to 25.5. The purpose and possible risks of the study were explained to all subjects, and their voluntary written consent was obtained. The study protocol was approved by the Committee for the Protection of Human Subjects of the Institutional Review Board at Vanderbilt University School of Medicine. All studies were performed at the Clinical Research Center (CRC). Subjects were placed on balanced weight-maintenance diets for at least one week before the start of the study. Meat was excluded from the subjects' diets for three days before the study and during the study.
All studies were performed after a 10-12 hour overnight fast. On the morning of the experiment (6.30 to 7.00 hours), an 18-gauge Angiocatheter™ (Benton Dickinson, Sandy, Utah) was placed in a superficial hand vein of the nondominant arm for blood sampling. The hand was heated to 55° C. to ensure complete arterialization (Abumrad, N.N. et al., "Use of a heated superficial hand vein as an alternative site for the measurement of amino acid concentrations and for the study of glucose and alanine kinetics in man," Metabolism (1981) 30:936-940). In addition, a 16-gauge angiocatheter was inserted into the contralateral forearm vein for the infusion of L-3-[methyl-^2 H3 ]-histidine (MSD Isotopes, Montreal, Canada). Finally, another catheter was threaded retrograde into the brachial vein of the dominant arm and used for sampling of the forearm tissue.
Each study was four days in duration. Starting at t=0 (8.00 hours), subjects were administered a bolus infusion of L-3-[methyl^2 H3 ]-histidine (D3 -3-methylhistidine) at 0.13 μmol/kg into the forearm vein of the dominant arm. The infusate was passed through a Millex-GS sterilizing filter (0.22 μm; Millipore Products Divisions, Bedford, Mass.) before the infusion. Blood samples were obtained from the superficial hand vein and from the deep forearm vein at 0, 1, 2, 5, 10, 15, 30, 45, 90, 150, 210, 270, 330, and 720 min. postinjection. During this time, the subjects were required to stay at the Clinical Research Center, although they were allowed to ambulate freely within their rooms. Free access to food and drink was allowed after the 330-min sample. After 720 min, the catheters were removed and the patients were allowed to go home. For the following three days, the subjects returned to the CRC each morning before eating for further blood sampling by percutaneous venous puncture at 1,440, 2,880, and 4,320 min postinjection. Urine was collected over 24 hour periods the day before and for three days after tracer infusion.
Blood was collected in heparinized syringes, transferred to tubes containing Na2 EDTA (15 mg/tube), and centrifuged. The plasma obtained was immediately placed on ice. An aliquot of the plasma was processed for determination of 3-methylhistidine concentration as well as the L-3-[methyl-^2 H3 ]-histidine:3-methylhistidine isotope enrichment. The remainder of the plasma was frozen at -70° C. The urine obtained was processed for the determination of creatinine both as a measure of the completeness of the collection (Pencharz, P. B. et al., "The effect of an energy-restricted diet on the protein metabolism of obese adolescents: nitrogen-balance and whole-body nitrogen turnover," Clin. Sci. (1980) 59:13-18), and for the estimation of lean body mass (Blackburn, G. L. et al., "Nutritional and metabolic assessment of hospitalized patients," J. Parenter. Enteral. Nutr. (1977) 1:11-22). […]

[2] = in vivo
[3] = in vivo; remark: listed apart in the source
Protocol: The diversity of models between cattle, dogs and humans and sheep and pigs reflects differences in known physiology. In each species the tracer is injected into compartment 1 which, based on size (volume and mass), is similar to plasma and extracellular water space. Compartment 1 was the sampling compartment and the compartment from which the steady state calculations were initiated. All models for each species can be resolved by sampling only plasma, except in sheep--the model in FIG. 4 required the sampling of plasma and urine. However, the sheep model can be resolved from plasma kinetics of 3-methylhistidine if the rate of exit from compartment 1 is fixed. From the steady state calculations the de novo production of 3-methylhistidine was obtained into compartment 3 for humans, cattle and dogs and into compartment 2 for sheep and pigs. The de novo production of 3-methylhistidine could be placed as an entry into compartment 2 and an identical rate calculated. The compartment identity of compartment 2 and 3 is intracellular pools of 3-methylhistidine. The metabolic form of 3-methylhistidine in these compartments may not be identical nor is the identity of compartment 2 or 3 for one species the same identity for another species (i.e., cattle vs. sheep). The models also depict differences in the route by which 3-methylhistidine exits the system. […]

[4] = Safety and excretion of administered D3-3-methylhistidine; details: small quantities administered
[5] = adult human; cited from earlier work
[6] = rat; cited from earlier work

Compound | Decay of D3-3-methylhistidine:3-methylhistidine ratio in plasma [1] | Urinary excretion [2] | Exponential decay curve of tracer [3] | Toxicity [4] | Share of daily 3-methylhistidine excreted [5] | Form excreted in urine [6]
[2H]C([2H])([2H])n1cnc(C[C@H](N)C(=O)O)c1 [D3-3-methylhistidine, 3-[^2 H3-methyl]-methylhistidine] | rapid decrease in the D3- 3-methylhistidine:3-methylhistidine ratio during the first 5 hours followed by a slow linear (semilog plot) decay over the three days of blood sampling | quantitatively excreted in urine | rapid decay over the first 2-3 hours, followed by a slower decay through 12 hours, and a steady state decay over the remainder of the study | non-toxic |  | 
N-acetyl-3-methylhistidine |  |  |  |  | less than 5% | major form excreted in the rat
